Values belong to the molecule of their own block, whether it stands above or below them.
Columns and labels:
[1] = tested on: MDA-MB-453 breast cancer cell line; assay: 3 days CellTiterGlo viability, checkerboard combination, MDA-MB-453; format: cell-based; conditions: single agent
Procedure: (§1) In addition, all media contained penicillin (100 IU/ml), streptomycin (100 μg/ml) and L-glutamine (2 mM).
(§2) Cell lines were cultured at 37° C. in a humidified atmosphere containing 5% CO2 and expanded in T-150 flasks. In all cases cells were thawed from frozen stocks, expanded through ≥1 passage using appropriate dilutions, counted and assessed for viability using a CASY cell counter prior to plating 150 μl/well at the densities indicated in Table 2 into 96-well plates.
(§3) Stock solutions of compounds were prepared at a concentration of 5 mM in DMSO and stored at −20° C.
(§4) In order to analyze the activity of the compounds in single agent or in combination, cells were seeded and treated with seven or eight 3.16-fold serial dilutions of each compound dispensed, either individually or in all possible permutations in a checkerboard fashion, directly into the cell assay plates as indicated in FIGS. 5 and 6. Effects of the single agents as well as their checkerboard combinations on cell viability were assessed after 3 days of incubation at 37° C./5% CO2 by quantification of cellular ATP levels using CellTiterGlo at 75 μL reagent/well. At least two independent experiments, each one performed in duplicates, were performed. Luminescence was quantified on a multipurpose plate reader.
(§5) Single agent IC50s were calculated using standard four-parametric curve fitting. Potential synergistic interactions between compound combinations were assessed using the Excess Inhibition 2D matrix according to the Loewe additivity model and are reported as Synergy Score (Lehar et al. 2009). All calculations were performed using Clalice™ Bioinformatics Software available in Horizon website.

[2] = tested on: MDA-MB-468 breast cancer cell line; assay: 3 days CellTiterGlo viability, checkerboard combination, MDA-MB-468; format: cell-based; conditions: single agent
Procedure: as §1, §2, §3, §4, §5

[3] = tested on: H522 lung cancer cell line; assay: 3 days CellTiterGlo viability, checkerboard combination, H522; format: cell-based; conditions: single agent
Procedure: as §1, §2, §3, §4, §5

[4] = tested on: 2 breast cancer cell lines (MDA-MB-453 and MDA-MB-468) and one lung cancer cell line (H522); assay: 3 days CellTiterGlo viability, summary of the three cell lines; format: cell-based; conditions: for cell lines tested whose growth was inhibited by the single agent: three cell lines tested
Procedure: as §1, §2, §3, §4, §5

[5] = tested on: TNBC PDX models 110T, 838T and PDX OD-BRE-0589; conditions: Compound 2 25 mg/kg i.v. weekly for six weeks; three TNBC PDX models
[6] = tested on: BT-20 breast cancer cell line; assay: 72 hours CellTiter-Glo proliferation assay, BT-20; format: cell-based; conditions: Homo sapiens, single agent, read-out: Abs IC50
Procedure: (§6) Compounds were dissolved in 100% DMSO (Sigma, Catalog # D2438-50 ML) at a stock concentration of 10 mM and stored at −20° C. until use. Compounds were arrayed in 2 ml deep 96-well plates (Greiner bio-one, catalog number 780271) serially diluted 3-fold. Compound 1 was used over a concentration range of 0.0-10.0 μM. Paclitaxel was used over a concentration range of 0.0-1.0 μM in breast cancer cells and 0.0-2.0 μM range in lung cancer cells.
(§7) All cell lines were purchased from the American Type Culture Collection and cultured according to vendor recommendations. […] All cell lines were determined to be free of mycoplasma contamination by a PCR detection assay performed at Idexx Radil (Columbia, Mo., USA) and authenticated by SNP analysis. […] Cells were expanded to T-75 flasks and assessed for viability using a Beckman-Coulter ViCell counter prior to plating. […]
(§8) Cell proliferation was measured in 72 hours CellTiter-Glo™ (CTG) assays and all results shown are the result of at least triplicate measurements. […] After 72 hours of compound treatment the effects of compounds on cell proliferation was determined using the CellTiter-Glo™ Luminescent Cell Viability Assay (Promega, Catalog # G7573). This is a homogeneous method to determine the number of viable cells in culture based on quantitation of the ATP present, which signals the presence of metabolically active cells. […]

[7] = tested on: BT-474 breast cancer cell line; assay: 72 hours CellTiter-Glo proliferation assay, BT-474; format: cell-based; conditions: Homo sapiens, single agent, read-out: Abs IC50
Procedure: as §6, §7, §8

[8] = tested on: BT-549 breast cancer cell line; assay: 72 hours CellTiter-Glo proliferation assay, BT-549; format: cell-based; conditions: Homo sapiens, single agent, read-out: Abs IC50
Procedure: as §6, §7, §8

[9] = tested on: Cal-148 breast cancer cell line; assay: 72 hours CellTiter-Glo proliferation assay, Cal-148; format: cell-based; conditions: Homo sapiens, single agent, read-out: Abs IC50
Procedure: as §6, §7, §8

[10] = tested on: HCC1143 breast cancer cell line; assay: 72 hours CellTiter-Glo proliferation assay, HCC1143; format: cell-based; conditions: Homo sapiens, single agent, read-out: Abs IC50
Procedure: as §6, §7, §8

[11] = tested on: HCC1395 breast cancer cell line; assay: 72 hours CellTiter-Glo proliferation assay, HCC1395; format: cell-based; conditions: Homo sapiens, single agent, read-out: Abs IC50
Procedure: as §6, §7, §8

[12] = tested on: HCC1500 breast cancer cell line; assay: 72 hours CellTiter-Glo proliferation assay, HCC1500; format: cell-based; conditions: single agent, read-out: Abs IC50
Procedure: as §6, §7, §8

[13] = tested on: HCC1937 breast cancer cell line; assay: 72 hours CellTiter-Glo proliferation assay, HCC1937; format: cell-based; conditions: Homo sapiens, single agent, read-out: Abs IC50
Procedure: as §6, §7, §8

[14] = tested on: HCC1954 breast cancer cell line; assay: 72 hours CellTiter-Glo proliferation assay, HCC1954; format: cell-based; conditions: Homo sapiens, single agent, read-out: Abs IC50
Procedure: as §6, §7, §8

[15] = tested on: HCC38 breast cancer cell line; assay: 72 hours CellTiter-Glo proliferation assay, HCC38; format: cell-based; conditions: Homo sapiens, single agent, read-out: Abs IC50
Procedure: as §6, §7, §8

[16] = tested on: HCC70 breast cancer cell line; assay: 72 hours CellTiter-Glo proliferation assay, HCC70; format: cell-based; conditions: Homo sapiens, single agent, read-out: Abs IC50
Procedure: as §6, §7, §8

[17] = tested on: Hs 578T breast cancer cell line; assay: 72 hours CellTiter-Glo proliferation assay, Hs 578T; format: cell-based; conditions: Homo sapiens, single agent, read-out: Abs IC50
Procedure: as §6, §7, §8

[18] = tested on: MCF7 breast cancer cell line; assay: 72 hours CellTiter-Glo proliferation assay, MCF7; format: cell-based; conditions: Homo sapiens, single agent, read-out: Abs IC50
Procedure: as §6, §7, §8

[19] = tested on: MDA-MB-157 breast cancer cell line; assay: 72 hours CellTiter-Glo proliferation assay, MDA-MB-157; format: cell-based; conditions: Homo sapiens, single agent, read-out: Abs IC50
Procedure: as §6, §7, §8

[20] = tested on: MDA-MB-231 breast cancer cell line; assay: 72 hours CellTiter-Glo proliferation assay, MDA-MB-231; format: cell-based; conditions: Homo sapiens, single agent, read-out: Abs IC50
Procedure: as §6, §7, §8

[21] = tested on: MDA-MB-436 breast cancer cell line; assay: 72 hours CellTiter-Glo proliferation assay, MDA-MB-436; format: cell-based; conditions: Homo sapiens, single agent, read-out: Abs IC50
Procedure: as §6, §7, §8

[22] = tested on: MDA-MB-453 breast cancer cell line; assay: 72 hours CellTiter-Glo proliferation assay, MDA-MB-453; format: cell-based; conditions: Homo sapiens, single agent, read-out: Abs IC50
Procedure: as §6, §7, §8

[23] = tested on: MDA-MB-468 breast cancer cell line; assay: 72 hours CellTiter-Glo proliferation assay, MDA-MB-468; format: cell-based; conditions: Homo sapiens, single agent, read-out: Abs IC50
Procedure: as §6, §7, §8

[24] = tested on: SK-BR-3 breast cancer cell line; assay: 72 hours CellTiter-Glo proliferation assay, SK-BR-3; format: cell-based; conditions: Homo sapiens, single agent, read-out: Abs IC50
Procedure: as §6, §7, §8

[25] = tested on: NCI-H522 lung cancer cell line; assay: 72 hours CellTiter-Glo proliferation assay, NCI-H522; format: cell-based; conditions: Homo sapiens, single agent, read-out: Abs IC50
Procedure: as §6, §7, §8

[26] = tested on: NCI-H23 lung cancer cell line; assay: 72 hours CellTiter-Glo proliferation assay, NCI-H23; format: cell-based; conditions: Homo sapiens, single agent, read-out: Abs IC50
Procedure: as §6, §7, §8

[27] = tested on: A549 lung cancer cell line; assay: 72 hours CellTiter-Glo proliferation assay, A549; format: cell-based; conditions: Homo sapiens, single agent, read-out: Abs IC50
Procedure: as §6, §7, §8

MDA-MB-231 xenografts = assay: MDA-MB-231 breast xenograft model, antitumor efficacy; format: in vivo, female nude rats; conditions: paclitaxel 7.5 mg/kg iv QW
SK-BR-3 cells = assay: SK-BR-3 viability (Cell Titer Glo, propidium iodide), Bliss synergy; format: cell-based; conditions: QVD-OPh 10 μM, propidium iodide staining, 72 hours

IC50 [1]: > 2000 nM | IC50 [2]: > 2000 nM | IC50 ([3]; H522 cell line): 140 nM
Compound: Cc1c(-c2c(-c3ccc(F)o3)sc3ncnc(O[C@H](Cc4ccccc4OCc4ccnn4CC(F)(F)F)C(=O)O)c23)ccc(OCCN2CCN(C)CC2)c1Cl [Compound 2, (2R)-2-{[(5Sa)-5-{3-chloro-2-methyl-4-[2-(4-methylpiperazin-1-yl)ethoxy]phenyl}-6-(5-fluorofuran-2-yl)thieno[2,3-d]pyrimidin-4-yl]oxy}-3-(2-{[1-(2,2,2-trifluoroethyl)-1H-pyrazol-5-yl]methoxy}phenyl)propanoic acid]
Mean of Max Inh [1]: 21.0% | Mean of Max Inh [2]: 24.0% | Mean of Max Inh ([3]; H522, 3 days): 92.0% | cell lines tested whose growth was inhibited by the single agent [4]: 1/3 | inhibition of tumor growth, single agent [5]: insufficient in inhibiting tumor growth

IC50 [6]: 5.97 nM | IC50 [7]: 1.7 nM | IC50 [8]: 8.82 nM | IC50 [9]: 4.25 nM | IC50 [10]: 9.43 nM | IC50 [11]: 8.03 nM | IC50 [12]: > 1000 nM | IC50 [13]: 11.6 nM | IC50 [14]: 6.5 nM | IC50 [15]: 4.33 nM | IC50 [17]: 0.363 nM | IC50 [18]: 10.4 nM | IC50 [19]: > 1000 nM | IC50 [20]: 17.5 nM | IC50 [21]: 14.7 nM | IC50 [22]: 4.2 nM | IC50 [23]: 3.07 nM | IC50 [24]: 2.66 nM | IC50 [25]: 0.48 nM | IC50 [26]: 0.22 nM | IC50 [27]: 0.163 nM | IC50 ([1]; Homo sapiens, 72 h): > 1000 nM | IC50 ([2]; Homo sapiens, 72 h): 0.9 nM | IC50 ([3]; Homo sapiens, NCI-H522, 72 h, H522, 3 days): 0.2 nM | IC50 ([4]; single agent, 2/3 lines tested, read-out: IC50 in the cell lines inhibited): < 1 nM
Compound: CC(=O)O[C@H]1C(=O)[C@@]2(C)[C@H]([C@H](OC(=O)c3ccccc3)[C@]3(O)C[C@H](OC(=O)[C@H](O)[C@@H](NC(=O)c4ccccc4)c4ccccc4)C(C)=C1C3(C)C)[C@]1(OC(C)=O)CO[C@@H]1C[C@@H]2O [Paclitaxel, paclitaxel, reference compound]
IC50 [16]: 8.39 nM | Mean of Max Inh [1]: 37.0% | Mean of Max Inh [2]: 75.0% | Mean of Max Inh ([3]; H522, 3 days): 61.0% | cell lines tested whose growth was inhibited by the single agent [4]: 2/3 | T/C % (MDA-MB-231 xenografts): 34%

Compound: CC(C)[C@H](NC(=O)c1ccc2ccccc2n1)C(=O)N[C@@H](CC(=O)O)C(=O)COc1c(F)cccc1F [QVD-OPH, QVD-OPh hydrate]
effect on cell death induced by docetaxel and Compound 2 (SK-BR-3 cells): efficiently blocked cell death

Reference: US10765680B2, “Combination of a MCL-1 inhibitor and a taxane compound, uses and pharmaceutical compositions thereof” (priority 2017, dated 2020)
